This passage reports C50, Ratio and C1.6 results from ChEMBL document CHEMBL1126133, “2-Nitroimidazole dual-function bioreductive drugs: studies on the effects of regioisomerism and side-chain structural modifications on differential cytotoxicity and radiosensitization by aziridinyl and oxiranyl derivatives” (1992).

Experiment [1] in a line: Concentration required to kill 50% of V79-379A cells under N2 (in vitro). The experiment is classed as functional, Cricetulus griseus.
The nature of experiment [2]: Concentration required to kill 50% of aerobic V79-379A cells (in vitro). The experiment is classed as functional, Cricetulus griseus.
Experiment [3] can be described thus: Ratio of concentration required to kill 50% aerobic V79-379A cells C50(air) to that of concentration required to kill 50% of cells under N2 C50(N2) was determined. The experiment is classed as functional.
The nature of experiment [4]: Radiosensitization of hypoxic V79-379A cells was determined in vitro; expressed as concentration required to give enhancement ratio of 1.6.

For the compound `O=[N+]([O-])c1nccn1CCC1CO1` (stereo not given), the values for the C50 in experiment [1] and in experiment [2] were 0.25 mM and 0.5 mM, respectively. The Ratio in experiment [3] was 2.

Regarding `CC(C)(C(O)Cn1ccnc1[N+](=O)[O-])N1CC1` (stereo not given), the C1.6 in experiment [4] was found to be 0.07 mM. In addition, the C50 amounted to 0.008 mM in experiment [1] and 0.1 mM in experiment [2]. Also, the Ratio in experiment [3] was 12.5.

Consider `O=[N+]([O-])c1nccn1[C@H]1CCC[C@@H](N2CC2)[C@@H]1O`, for which the C1.6 in experiment [4] amounted to 0.45 mM. In addition, the C50 in experiment [1] and in experiment [2] was 0.35 mM throughout. In experiment [3], the Ratio is reported as 1.

For the compound `CC(O)(CN1CC1)Cn1ccnc1[N+](=O)[O-]` (stereo not given), the C50 is reported as 0.02 mM in experiment [1] and 0.55 mM in experiment [2]. Also, the Ratio in experiment [3] stood at 27.5.

As to `C[C@@H]([C@H](O)Cn1ccnc1[N+](=O)[O-])N1CC1`, the C1.6 in experiment [4] stood at 0.12 mM. The C50 in experiment [1] worked out at 0.01 mM; in experiment [2], 0.2 mM. Moreover, in experiment [3], the Ratio turned out to be 20.

`CC1CN1CC(O)Cn1ccnc1[N+](=O)[O-]` (stereo not given): the C1.6 in experiment [4] is 0.08 mM. The figures for the C50 in experiment [1] and in experiment [2] were 0.065 mM and 0.79 mM, respectively. The Ratio in experiment [3] was 12.2.

For `O=[N+]([O-])c1nccn1[C@@H]1CCC[C@@H]2O[C@@H]21`, the figures for the C50 in experiment [1] and in experiment [2] were 0.18 mM and 0.28 mM, respectively. Also, the Ratio in experiment [3] was found to be 1.5.

With `CC1(Cn2ccnc2[N+](=O)[O-])CO1` (stereo not given), the C50 in experiment [1] and in experiment [2] was 0.2 mM throughout. In addition, the Ratio in experiment [3] is 1.

On to `O=[N+]([O-])c1nccn1CCCCC1CO1` (stereo not given), for which the C50 stood at 0.7 mM in experiment [1] and 1.2 mM in experiment [2]. In addition, the Ratio in experiment [3] stood at 1.7.

On to `O=[N+]([O-])c1nccn1CC(O)CCC1CO1` (stereo not given), for which, in experiment [4], the C1.6 is reported as 0.4 mM. Besides, the results for the C50 in experiment [1] and in experiment [2] were 0.4 mM and 0.6 mM, respectively. Besides, the Ratio in experiment [3] is recorded as 1.5.

As to `CC1OC1Cn1ccnc1[N+](=O)[O-]` (stereo not given), the C50 in experiment [1] turned out to be 3.3 mM; in experiment [2], 10 mM. In addition, the Ratio in experiment [3] is 3.

Regarding `O=[N+]([O-])c1nccn1CC(O)C1CO1` (stereo not given), the C1.6 in experiment [4] turned out to be 0.2 mM. The C50 is 0.36 mM in experiment [1] and 1.2 mM in experiment [2]. The Ratio in experiment [3] worked out at 3.3.

Consider `O=[N+]([O-])c1nccn1CC(O)CN1CC1` (stereo not given), for which the C1.6 in experiment [4] was determined as 0.1 mM. Further, the C50 in experiment [1] was 0.015 mM; in experiment [2], 0.3 mM. For the same compound, the Ratio in experiment [3] is 20.

For `O=[N+]([O-])c1ncc[nH]1` [AZOMYCIN], the C1.6 in experiment [4] is 0.25 mM. Also, the C50 in experiment [1] was 0.27 mM; in experiment [2], 0.55 mM. Further, in experiment [3], the Ratio amounted to 2.
